Results from patent publication US8338451B2, “Polysubstituted derivatives of 2-heteroaryl-6-phenylimidazo[1,2-a]pyridines, and preparation and therapeutic use thereof” (Sanofi, priority 2008, dated 2012).

Each compound was assayed against T1, mouse Nurr1 receptor (Mus musculus, UniProt Q06219) (assay: In vitro activity on N2A cells: NBRE-luciferase reporter (NOT/Nurr1 modulation)). Conditions: N2A (Neuro-2A) cells stably transfected with 8NBRE-luciferase, 24 hours incubation.
T1 construct: a cell line (N2A) endogenously expressing the mouse Nurr1 receptor; host or cells: Neuro-2A (N2A) mouse neuroblastoma cells stably transfected with 8NBRE-luciferase
T1 sequence (Q06219 whole entry): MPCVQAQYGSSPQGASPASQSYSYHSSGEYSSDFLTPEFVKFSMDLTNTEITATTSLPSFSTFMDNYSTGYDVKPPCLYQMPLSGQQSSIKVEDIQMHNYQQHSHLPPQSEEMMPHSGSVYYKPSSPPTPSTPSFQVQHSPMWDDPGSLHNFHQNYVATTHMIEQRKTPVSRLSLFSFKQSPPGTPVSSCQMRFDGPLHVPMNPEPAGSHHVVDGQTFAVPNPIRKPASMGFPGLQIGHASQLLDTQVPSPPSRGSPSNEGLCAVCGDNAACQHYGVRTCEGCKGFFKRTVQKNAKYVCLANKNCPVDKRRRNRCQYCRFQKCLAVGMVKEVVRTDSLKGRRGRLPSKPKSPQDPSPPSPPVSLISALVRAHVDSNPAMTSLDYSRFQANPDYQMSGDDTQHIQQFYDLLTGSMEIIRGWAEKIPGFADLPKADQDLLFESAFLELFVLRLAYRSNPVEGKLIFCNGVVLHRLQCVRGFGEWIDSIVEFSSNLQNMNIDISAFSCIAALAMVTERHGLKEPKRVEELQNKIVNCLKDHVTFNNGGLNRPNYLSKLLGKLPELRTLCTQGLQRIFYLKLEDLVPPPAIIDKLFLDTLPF
Format: cell-based
Protocol: Evaluation of the In Vitro Activity on N2A Cells The activity of the compounds according to the invention was evaluated on a cell line (N2A) endogenously expressing the mouse Nurr1 receptor and stably transfected with the NOT binding response element (NBRE) coupled to the luciferase reporter gene. The EC50 values are between 0.01 and 10 μM. The tests were carried out according to the procedure described below. The Neuro-2A cell line comes from a standard commercial source (ATCC). The Neuro-2A clone was obtained from a spontaneous tumour originating from a mouse A albino strain, by R. J Klebe et el. This Neuro-2A line is then stably transfected with 8NBRE-luciferase. The N2A-8NBRE cells are cultured to confluence in 75 cm^2 culture flasks containing DMEM supplemented with 10% of foetal calf serum, 4.5 g/l of glucose and 0.4 mg/ml of geneticin. After one week of culture, the cells are recovered with 0.25% trypsin for 30 seconds, and then resuspended in DMEM without phenol red, containing 4.5 g/l of glucose and 10% of Hyclone defatted serum, and deposited in white, transparent-bottom 96-well plates. The cells are deposited at a rate of 60 000 per well in 75 μl for 24 hours before the addition of the products. […] On the day of the measurement, an equivalent volume (100 μl) of Steadylite is added to each well, followed by a waiting period of 30 minutes in order to obtain complete lysis of the cells and maximum production of the signal. The plates are then measured in a microplate luminescence counter after having been sealed with an adhesive film. […] Each product concentration is diluted beforehand in culture medium before incubation with the cells thus containing a final concentration of 0.625% of DMSO.

Row | Compound | EC50 [nM]
1 | OCc1cccc(-c2ccc3nc(-c4cccnc4)cn3c2)c1 [Compound 7] | 1.6
2 | OCc1ccc(-c2ccc3nc(-c4coc5ccccc45)cn3c2)cc1 [Compound 24, [4-[2-(benzofuran-3-yl)imidazo[1,2-a]pyridin-6-yl]phenyl]methanol] | 50
3 | OCc1c(F)ccc(-c2ccc3nc(-c4cc5ccccc5o4)cn3c2)c1F [Compound 79, [3-(2-benzofuran-2-ylimidazo[1,2-a]pyridin-6-yl)-2,6-difluorophenyl]methanol] | 5

Further lines, results first:

Row | EC50 [nM] | Compound
4 | 0.9 | OCc1cccc(-c2ccc3nc(-c4ccc5c(c4)OCO5)cn3c2)c1 [Compound 6, {3-[2-(1,3-benzodioxol-5-yl)imidazo[1,2-a]pyridin-6-yl]phenyl}methanol]
5 | 202 | CC(C)(O)c1cccc(-c2ccc3nc(-c4ccccn4)cn3c2)c1 [Compound 50, 2-[3-(2-pyridin-2-ylimidazo[1,2-a]pyridin-6-yl)phenyl]propan-2-ol]
6 | 20 | OCc1c(F)cccc1-c1ccc2nc(-c3cccs3)cn2c1 [Compound 68, [2-fluoro-6-(2-thien-2-ylimidazo[1,2-a]pyridin-6-yl)phenyl]methanol]
7 | 71 | Cc1cc(-c2cn3cc(-c4cccc(C(C)(C)O)c4)ccc3n2)no1 [Compound 86, 2-{3-[2-(5-methylisoxazol-3-yl)imidazo[1,2-a]pyridin-6-yl]phenyl}propan-2-ol]
